Experimental data taken from patent US10750743B2, “Pyridazinone herbicides” (E.I. DU PONT DE NEMOURS AND COMPANY, priority 2015, dated 2020).

Tests used:
Assay type in all cases: in vivo
[1] = test system: sedge, umbrella (small-flower umbrella sedge, Cyperus difformis); test: Test B flooded paddy test, visual rating; details: Flood, 250 g ai/ha, applied to paddy water, rated after 13 to 15 d
Method in brief: (§1)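 Plants at the 2-leaf stage were flooded to 3 cm above soil, and test compounds were applied directly into the paddy water, which was held at that depth throughout. After 13 to 15 d in a greenhouse, injury was rated visually against untreated controls on a 0–100 scale (0 no effect, 100 complete control).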

[2] = test system: barnyardgrass (Echinochloa crus-galli); test: Test B flooded paddy test, visual rating; details: Flood, 250 g ai/ha, applied to paddy water, rated after 13 to 15 d
Method in brief: as §1

[3] = test system: ducksalad (Heteranthera limosa); test: Test B flooded paddy test, visual rating; details: Flood, 250 g ai/ha, applied to paddy water, rated after 13 to 15 d
Method in brief: as §1

rice (Oryza sativa) = test: Test B flooded paddy test, visual rating; details: Flood, 250 g ai/ha, applied to paddy water, rated after 13 to 15 d
Method in brief: as §1

[4] = test system: barnyardgrass (Echinochloa crus-galli); test: Test A preemergence, directed soil spray, visual injury rating; details: 0 is no effect, 100 is complete control
Method in brief: (§2)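 Seeds sown in a loam soil–sand blend received a directed preemergence soil spray of test chemical in a non-phytotoxic solvent mixture with surfactant. Postemergence plants were sprayed at 2 to 10 cm, one- to two-leaf stage. After approximately 10 d in greenhouse, injury was visually rated 0 (no effect) to 100 (complete control) against untreated controls.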

[5] = test system: foxtail, giant (giant foxtail, Setaria faberii); test: as above; details: 0 is no effect, 100 is complete control
Method in brief: as §2

[6] = test system: pigweed (Amaranthus retroflexus); test: as above; details: 0 is no effect, 100 is complete control
Method in brief: as §2

[7] = test system: ryegrass, It. (Italian ryegrass, Lolium multiflorum); test: as above; details: 0 is no effect, 100 is complete control
Method in brief: as §2

kochia (Kochia scoparia) [8] = test: as above; details: 0 is no effect, 100 is complete control
Method in brief: as §2

[9] = test system: ragweed (common ragweed, Ambrosia elatior); test: as above; details: 0 is no effect, 100 is complete control
Method in brief: as §2

[10] = test system: barnyardgrass (Echinochloa crus-galli); test: Test A postemergence application, visual injury rating; details: 0 to 100 scale, 0 no effect, 100 complete control
Method in brief: as §2

[11] = test system: foxtail, giant (giant foxtail, Setaria faberii); test: as above; details: 0 to 100 scale, 0 no effect, 100 complete control
Method in brief: as §2

[12] = test system: pigweed (Amaranthus retroflexus); test: as above; details: 0 to 100 scale, 0 no effect, 100 complete control
Method in brief: as §2

[13] = test system: wheat (Triticum aestivum); test: as above; details: 0 to 100 scale, 0 no effect, 100 complete control
Method in brief: as §2

[14] = test system: ryegrass, It. (Italian ryegrass, Lolium multiflorum); test: as above; details: 0 to 100 scale, 0 no effect, 100 complete control
Method in brief: as §2

corn (Zea mays) = test: as above; details: 0 to 100 scale, 0 no effect, 100 complete control
Method in brief: as §2

kochia (Kochia scoparia) [15] = test: as above; details: 0 to 100 scale, 0 no effect, 100 complete control
Method in brief: as §2

[16] = test system: galium (catchweed bedstraw, Galium aparine); test: as above; details: 0 to 100 scale, 0 no effect, 100 complete control
Method in brief: as §2

[17] = test system: blackgrass (Alopecurus myosuroides); test: as above; details: 0 to 100 scale, 0 no effect, 100 complete control
Method in brief: as §2

[18] = test system: ragweed (common ragweed, Ambrosia elatior); test: as above; details: 0 to 100 scale, 0 no effect, 100 complete control
Method in brief: as §2

SMILES	Sedge, Umbrella plant response rating (0 to 100 scale, 0 is no effect, 100 is complete control) [1]	Barnyardgrass plant response rating (0 to 100 scale, 0 is no effect, 100 is complete control) [2]	Ducksalad plant response rating (0 to 100 scale, 0 is no effect, 100 is complete control) [3]	Rice plant response rating (0 to 100 scale, 0 is no effect, 100 is complete control) (rice (Oryza sativa))	Plant response rating (0 to 100 scale), Barnyardgrass ([4]; 31 g ai/ha)	Plant response rating (0 to 100 scale), Barnyardgrass ([4]; 125 g ai/ha)	Plant response rating (0 to 100 scale), Foxtail, Giant ([5]; 31 g ai/ha)	Plant response rating (0 to 100 scale), Foxtail, Giant ([5]; 125 g ai/ha)	Plant response rating (0 to 100 scale), Pigweed ([6]; 31 g ai/ha)	Plant response rating (0 to 100 scale), Pigweed ([6]; 125 g ai/ha)	Plant response rating (0 to 100 scale), Ryegrass, It. ([7]; 31 g ai/ha)	Plant response rating (0 to 100 scale), Ryegrass, It. ([7]; 125 g ai/ha)	Plant response rating (0 to 100 scale), Kochia (kochia (Kochia scoparia) [8]; 31 g ai/ha)	Plant response rating (0 to 100 scale), Kochia (kochia (Kochia scoparia) [8]; 125 g ai/ha)	Plant response rating (0 to 100 scale), Ragweed ([9]; 31 g ai/ha)	Plant response rating (0 to 100 scale), Ragweed ([9]; 125 g ai/ha)	Barnyardgrass plant response rating ([10]; 31 g ai/ha)	Barnyardgrass plant response rating ([10]; 125 g ai/ha)	Foxtail, Giant plant response rating ([11]; 31 g ai/ha)	Foxtail, Giant plant response rating ([11]; 125 g ai/ha)	also measured
Cc1nn(C)c(=O)c(-c2ccc(Cl)c3sc(Br)cc23)c1O [Compound 37]	0	0	0	0	0	0	0	0	0	0	0	0	0	0	0	50	0	0	0	0	Pigweed plant response rating ([12]; 31 g ai/ha): 0; Pigweed plant response rating ([12]; 125 g ai/ha): 0; Wheat plant response rating ([13]; 31 g ai/ha): 0; Wheat plant response rating ([13]; 125 g ai/ha): 0; Ryegrass, It. plant response rating ([14]; 31 g ai/ha): 0; Ryegrass, It. plant response rating ([14]; 125 g ai/ha): 0; Corn plant response rating (corn (Zea mays); 31 g ai/ha): 0; Corn plant response rating (corn (Zea mays); 125 g ai/ha): 0; Kochia plant response rating (kochia (Kochia scoparia) [15]; 31 g ai/ha): 0; Kochia plant response rating (kochia (Kochia scoparia) [15]; 125 g ai/ha): 10; Galium plant response rating ([16]; 31 g ai/ha): 20; Galium plant response rating ([16]; 125 g ai/ha): 40; Blackgrass plant response rating ([17]; 31 g ai/ha): 0; Blackgrass plant response rating ([17]; 125 g ai/ha): 0; Ragweed plant response rating ([18]; 31 g ai/ha): 0; Ragweed plant response rating ([18]; 125 g ai/ha): 0
CC(=O)Oc1c(C)nn(C)c(=O)c1-c1ccc(Cl)c2ccsc12 [Compound 51]	0	0	0	0	0	20	0	0	0	60	60	100	0	20	0	0	0	10	0	0	Pigweed plant response rating ([12]; 31 g ai/ha): 50; Pigweed plant response rating ([12]; 125 g ai/ha): 60; Wheat plant response rating ([13]; 31 g ai/ha): 0; Wheat plant response rating ([13]; 125 g ai/ha): 0; Ryegrass, It. plant response rating ([14]; 31 g ai/ha): 70; Ryegrass, It. plant response rating ([14]; 125 g ai/ha): 100; Corn plant response rating (corn (Zea mays); 31 g ai/ha): 0; Corn plant response rating (corn (Zea mays); 125 g ai/ha): 0; Kochia plant response rating (kochia (Kochia scoparia) [15]; 31 g ai/ha): 70; Kochia plant response rating (kochia (Kochia scoparia) [15]; 125 g ai/ha): 90; Galium plant response rating ([16]; 31 g ai/ha): 100; Galium plant response rating ([16]; 125 g ai/ha): 100; Blackgrass plant response rating ([17]; 31 g ai/ha): 0; Blackgrass plant response rating ([17]; 125 g ai/ha): 10; Ragweed plant response rating ([18]; 31 g ai/ha): 0; Ragweed plant response rating ([18]; 125 g ai/ha): 50
